# Experiments:
# Assay in all cases: relative viability (nuclei count vs DMSO), 5 days (fraction); higher = more cells survive
# Metformin + OSI-027 = compound: CN(C)C(=N)NC(=N)N [Metformin] + COc1cccc2cc(-c3nc([C@H]4CC[C@H](C(=O)O)CC4)n4ncnc(N)c34)[nH]c12 [OSI-027] (partner 0.5 µM)
# Method in brief: (§1)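 Relative viability divides the nuclei count in treated wells by that in vehicle wells. Lung cancer cell lines were seeded in 1536-well plates, dosed by pin tool the next day, and fixed and stained after 5 days in one step with final 0.05% Triton X-100, 1% formaldehyde and 1 ug/ml Hoechst. Dosing was a single drug or a fixed anchor-drug dose plus five library-drug doses (not always all listed) in √10 steps, and values are medians of duplicate plates imaged at 4×.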
# Metformin + Pictilisib = compound: CN(C)C(=N)NC(=N)N [Metformin] + CS(=O)(=O)N1CCN(Cc2cc3nc(-c4cccc5[nH]ncc45)nc(N4CCOCC4)c3s2)CC1 [Pictilisib] (partner 1 µM)
# Method in brief: as §1
# Apatinib + Lapatinib = compound: N#CC1(c2ccc(NC(=O)c3cccnc3NCc3ccncc3)cc2)CCCC1 [Apatinib] + CS(=O)(=O)CCNCc1ccc(-c2ccc3ncnc(Nc4ccc(OCc5cccc(F)c5)c(Cl)c4)c3c2)o1 [Lapatinib] (partner 2 µM)
# Method in brief: as §1
# Apatinib + Dasatinib = compound: N#CC1(c2ccc(NC(=O)c3cccnc3NCc3ccncc3)cc2)CCCC1 [Apatinib] + Cc1nc(Nc2ncc(C(=O)Nc3c(C)cccc3Cl)s2)cc(N2CCN(CCO)CC2)n1 [Dasatinib] (partner 0.075 µM)
# Method in brief: as §1
Cell Line,relative viability (Metformin + OSI-027; first compound 10 µM),relative viability (Metformin + OSI-027; first compound 31.62 µM),relative viability (Metformin + OSI-027; first compound 100 µM),relative viability (Metformin + OSI-027; first compound 316.23 µM),relative viability (Metformin + OSI-027; first compound 1000 µM),relative viability (Metformin + Pictilisib; first compound 10 µM),relative viability (Metformin + Pictilisib; first compound 31.62 µM),relative viability (Metformin + Pictilisib; first compound 100 µM),relative viability (Metformin + Pictilisib; first compound 316.23 µM),relative viability (Metformin + Pictilisib; first compound 1000 µM),relative viability (Apatinib + Lapatinib; first compound 0.08 µM),relative viability (Apatinib + Lapatinib; first compound 0.253 µM),relative viability (Apatinib + Lapatinib; first compound 0.8 µM),relative viability (Apatinib + Lapatinib; first compound 2.53 µM),relative viability (Apatinib + Lapatinib; first compound 8 µM),relative viability (Apatinib + Dasatinib; first compound 0.08 µM),relative viability (Apatinib + Dasatinib; first compound 0.253 µM),relative viability (Apatinib + Dasatinib; first compound 0.8 µM),relative viability (Apatinib + Dasatinib; first compound 2.53 µM),relative viability (Apatinib + Dasatinib; first compound 8 µM)
NCI-H838,0.544,0.624,0.563,0.508,0.515,0.535,0.543,0.477,0.494,0.682,1.29,1.13,0.998,0.965,0.891,0.353,0.303,0.272,0.328,0.268
EKVX,0.623,0.77,0.645,–,0.681,0.404,0.392,0.453,0.414,0.392,0.186,0.131,0.229,0.186,0.188,0.603,0.621,0.478,0.361,0.325
NCI-H1944,0.428,0.401,0.402,0.425,0.455,0.324,0.351,0.371,0.293,0.338,0.832,0.863,0.736,0.745,0.739,0.247,0.204,0.208,0.254,0.249
EPLC-272H,0.294,0.269,0.262,0.293,0.335,0.362,0.314,0.364,0.305,0.302,1.13,0.874,1.11,0.708,1.05,0.382,–,0.358,0.355,0.335
NCI-H1666,0.97,0.974,1.05,0.99,0.939,0.481,0.536,0.352,0.356,0.467,0.631,0.726,0.736,0.759,0.682,0.931,0.803,0.796,0.703,0.713
NCI-H322M,0.54,0.597,0.604,0.457,0.46,0.471,0.52,0.491,0.469,0.43,0.571,0.465,0.57,0.64,0.584,0.253,0.229,0.245,0.256,0.247
NCI-H1437,1.21,1.23,1.06,1,1.04,0.671,0.729,0.406,0.629,0.757,0.761,0.841,0.745,0.624,0.537,0.28,0.417,0.373,0.266,0.157
NCI-H23,0.594,0.665,0.559,0.523,0.664,0.505,0.604,0.527,0.614,0.654,1.54,1.2,0.959,1.04,0.905,0.799,0.837,0.694,0.727,0.611
NCI-H647,0.721,0.853,0.538,0.485,0.924,0.469,0.535,0.479,0.441,0.292,1.35,1.13,0.925,1.02,0.858,0.506,0.253,0.175,0.169,0.152
NCI-H2009,0.754,0.821,0.752,0.692,0.601,0.795,0.922,0.846,0.779,0.763,0.993,0.893,0.863,0.795,0.538,0.374,0.326,0.31,0.195,0.179
HCC-78,0.466,0.49,0.362,0.426,0.422,0.291,0.257,0.201,0.159,0.244,0.568,0.731,0.942,0.829,0.748,0.332,0.289,0.361,0.333,0.302
LCLC-97TM1,0.647,0.58,0.537,0.487,0.711,0.257,0.196,0.255,0.234,0.223,0.845,0.818,0.586,0.604,0.475,0.824,0.763,0.767,0.711,0.504
NCI-H650,0.517,0.549,0.535,0.584,0.607,0.96,1.01,1.12,1.06,0.978,0.799,0.982,0.784,0.74,0.583,0.37,0.435,0.483,0.444,0.403
HOP-62,0.827,0.903,0.992,0.678,0.861,0.739,0.656,0.786,0.531,0.657,0.994,–,0.945,0.955,0.929,0.732,0.699,0.689,0.571,0.589
LC-2-ad,–,0.69,0.693,0.531,0.588,–,0.471,0.334,0.426,0.408,0.925,0.998,0.947,0.9,0.71,0.718,0.774,0.511,0.391,0.4
NCI-H2126,0.682,0.725,0.8,0.787,0.656,0.519,0.474,0.514,0.472,0.485,0.757,0.768,0.762,0.711,0.78,0.584,0.514,0.52,0.488,0.446
NCI-H1975,0.96,1.08,0.748,0.891,0.949,0.285,0.327,0.306,0.314,0.321,0.929,1.15,0.835,0.738,0.904,0.469,0.313,0.262,0.26,0.281
